Results published in US20230201118A1, “PRODRUG COPOLYMERS AND POLYMERIC MICELLES THEREOF FOR THE DELIVERY OF SHORT-CHAIN FATTY ACIDS, THE PROMOTION OF GUT HEALTH, AND THE TREATMENT OF IMMUNE AND/OR INFLAMMATORY CONDITIONS AND FOOD ALLERGY” (The University of Chicago, priority 2021, published 2023).

Tested on: APCs in the draining LNs
Assay: Subcutaneous LPS stimulation: activation markers CD40 and CD86 on APCs in draining LNs
Assay type: in vivo, mouse
Details: s.c. treatment, LPS challenge on Day 6
Description: In order to assess the ability of lymph node targeted Neg-ButM in suppressing the activation of APCs, the investors tested on a mouse model of subcutaneous lipopolysaccharide (LPS) stimulation and evaluated on the activation marker including CD40 and CD86 on the major APCs in the draining LNs. Mice were injected with either PBS, sodium butyrate (NaBut), NtL-ButM, or Neg-ButM subcutaneously at the abdomen site. On Day 6, Mice were challenged with LPS on the same injection site, and sacrificed the next day for the cellular analysis.

## CCCC(=O)[O-].[Na+] [sodium butyrate]
  suppression of APC activation: neither the NtL-ButM, nor sodium butyrate showed any significant suppression on the APC activations
